Patent US11464780B2, “Pyrazolopyrimidine derivative and use thereof” (Simcere Pharmaceutical Co. Ltd., priority 2018, dated 2022)
Structures can show the parent of a compound that is named as a salt.

Legend:
[1] = tested on: human lung cancer LU-01-0414 subcutaneous xenograft tumor; experiment: In vivo efficacy, subcutaneous xenograft tumor of human lung cancer LU-01-0414; set-up: species or system BALB/c mouse; conditions: LU-01-0414 xenograft, 14th day, PO
Protocol: Experimental object: evaluation of the in vivo efficacy of test drugs such as WX002A on subcutaneous xenograft tumor of human lung cancer LU-01-0414 in BALB/c mouse model.
Drug preparation: The compounds were all prepared into clear solutions with 5% DMSO+10% solutol+85% water as solvent for administration in the PO (intragastric) group.
Tumor measurement: the tumor diameters were measured with a vernier caliper twice a week. The calculation formula of tumor volume is: V=0.5×a×b^2, wherein a and b represent the long diameter and short diameter of the tumor, respectively. The anti-tumor efficacy of the compounds was evaluated by TGI (%). TGI (%) reflects tumor growth inhibition rate.
Statistical analysis: the statistical analysis was based on the relative tumor volume and tumor weight at the end of the experiment using SPSS software. One-way ANOVA was used to analyze the comparison between multiple groups. […] P<0.05 was considered to indicate significant difference.

[2] = In vivo pharmacokinetic test in mice; set-up: species or system male CD-1 mice; conditions: PO dose of 10 mL/kg
Protocol: Experimental object: male CD-1 mice aged 7-9 weeks were used as the experimental animals, the LC/MS/MS method was used to determine the drug concentrations in plasma at different time points after single intravenous (IV) and intragastric (PO) administration of the compounds, in vivo pharmacokinetic behaviors of the compounds of the present disclosure in mice were studied, and pharmacokinetic characteristics thereof were evaluated. Drug preparation: The compounds were prepared into clear solutions with 5% DMSO+10% solutol+85% water as solvent for administration in IV (intravenous) group and PO (intragastric). The dose of the compounds: IV dose of 3 mg/kg, and PO dose of […].

[3] = In vivo cassette pharmacokinetic test in mice; set-up: species or system male CD-1 mice; conditions: male, CD-1, mouse, in vivo, po, 3 mg/kg, 2 h
Protocol: The dose of the compounds: […] PO dose of 3 mg/kg, and administration volume of 3 mL/kg.

[4] = biological target: T1, TrkA (Homo sapiens, UniProt P04629); experiment: Kinase inhibitory activity (33P-ATP filter binding, Reaction Biology Corp.); format: biochemical; conditions: read-out: The half maximal inhibitory concentration IC50 on the kinases, TrkA
T1 construct: purchased Reaction Biology Corp. (contract assay)
T1 sequence (P04629 33-796): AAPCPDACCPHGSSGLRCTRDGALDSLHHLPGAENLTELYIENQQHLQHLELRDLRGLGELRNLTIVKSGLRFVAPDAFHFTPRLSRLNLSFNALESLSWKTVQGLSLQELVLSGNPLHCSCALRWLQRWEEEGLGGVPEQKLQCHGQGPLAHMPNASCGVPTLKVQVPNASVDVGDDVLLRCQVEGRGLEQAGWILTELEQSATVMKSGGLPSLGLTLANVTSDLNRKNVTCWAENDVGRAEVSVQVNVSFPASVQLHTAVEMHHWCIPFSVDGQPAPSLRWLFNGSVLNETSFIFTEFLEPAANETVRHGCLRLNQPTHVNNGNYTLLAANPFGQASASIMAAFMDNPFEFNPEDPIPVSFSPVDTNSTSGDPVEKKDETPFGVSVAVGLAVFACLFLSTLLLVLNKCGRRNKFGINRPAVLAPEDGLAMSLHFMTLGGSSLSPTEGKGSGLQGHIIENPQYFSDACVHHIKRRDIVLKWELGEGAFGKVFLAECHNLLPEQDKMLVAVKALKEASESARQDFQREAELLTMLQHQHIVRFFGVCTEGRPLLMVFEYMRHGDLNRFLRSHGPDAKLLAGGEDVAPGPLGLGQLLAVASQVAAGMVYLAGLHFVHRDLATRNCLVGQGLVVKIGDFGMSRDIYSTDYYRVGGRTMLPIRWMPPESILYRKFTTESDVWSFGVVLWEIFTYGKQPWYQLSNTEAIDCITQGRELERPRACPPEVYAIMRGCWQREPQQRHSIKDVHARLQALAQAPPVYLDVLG
Protocol: (§1) The mixture was incubated at room temperature for 20 minutes. To the reaction mixture was added a certain concentration of ^33P-ATP to initiate the reaction, and then the mixture was incubated at room temperature for 120 minutes. The radioactivities of the reactants were determined by the method of filter binding. The final kinase activity was expressed as the ratio of the remaining kinase activity in the test sample to the kinase activity in the DMSO control group. The dose-effect curve was fitted by GraphPad software and the IC50 was calculated.

[5] = biological target: T2, TrkC (Homo sapiens, UniProt Q16288); experiment: as above; format: biochemical; conditions: read-out: The half maximal inhibitory concentration IC50 on the kinases, TrkC
T2 construct: purchased Reaction Biology Corp. (contract assay)
T2 sequence (Q16288 32-839): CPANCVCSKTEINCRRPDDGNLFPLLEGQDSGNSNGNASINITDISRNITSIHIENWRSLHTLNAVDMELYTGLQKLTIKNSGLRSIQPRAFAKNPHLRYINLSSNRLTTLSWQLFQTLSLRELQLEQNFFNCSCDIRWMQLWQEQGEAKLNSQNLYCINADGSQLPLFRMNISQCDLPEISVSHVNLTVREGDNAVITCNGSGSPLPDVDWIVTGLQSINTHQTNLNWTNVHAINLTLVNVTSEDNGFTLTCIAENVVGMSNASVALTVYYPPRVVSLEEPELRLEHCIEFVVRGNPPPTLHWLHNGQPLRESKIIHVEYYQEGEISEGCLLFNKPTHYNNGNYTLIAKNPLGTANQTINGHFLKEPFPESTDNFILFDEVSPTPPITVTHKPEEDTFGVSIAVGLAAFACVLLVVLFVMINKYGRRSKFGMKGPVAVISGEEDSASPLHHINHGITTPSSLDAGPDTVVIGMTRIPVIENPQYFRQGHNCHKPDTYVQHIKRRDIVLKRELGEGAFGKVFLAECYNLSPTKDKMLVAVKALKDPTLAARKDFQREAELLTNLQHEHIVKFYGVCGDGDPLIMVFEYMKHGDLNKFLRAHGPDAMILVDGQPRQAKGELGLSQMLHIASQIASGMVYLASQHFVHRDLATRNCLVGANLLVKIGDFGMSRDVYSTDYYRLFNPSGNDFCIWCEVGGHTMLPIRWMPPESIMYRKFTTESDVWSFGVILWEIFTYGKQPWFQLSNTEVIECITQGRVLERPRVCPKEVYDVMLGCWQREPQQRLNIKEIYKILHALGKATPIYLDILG
Protocol: as §1

[6] = biological target: T3, ALK (Homo sapiens, UniProt Q9UM73); experiment: as above; format: biochemical; conditions: read-out: The half maximal inhibitory concentration IC50 on the kinases, ALK
T3 construct: purchased Reaction Biology Corp. (contract assay)
Protocol: The inhibitory activities of the compounds on TrkA, TrkC, ALK, Ros1 and other kinases were determined by Reaction Biology Corp. To reaction buffer (20 mM Hepes (pH 7.5), 10 mM MgCl2, 1 mM EGTA, 0.02% Brij35, 0.02 mg/mL BSA, 0.1 mM Na3VO4, 2 mM DTT, 1% DMSO) were sequentially added a certain concentration of substrate, coenzyme factor, kinase and test compound (10 concentrations, 3-fold serial dilutions, DMSO at a final concentration of […]), and the mixture was mixed evenly. The mixture was incubated at room temperature for 20 minutes. To the reaction mixture was added a certain concentration of ^33P-ATP to initiate the reaction, and then the mixture was incubated at room temperature for 120 minutes. The radioactivities of the reactants were determined by the method of filter binding. The final kinase activity was expressed as the ratio of the remaining kinase activity in the test sample to the kinase activity in the DMSO control group. The dose-effect curve was fitted by GraphPad software and the IC50 was calculated.

[7] = biological target: T4, Ros1 (Homo sapiens, UniProt P08922); experiment: as above; format: biochemical; conditions: read-out: The half maximal inhibitory concentration IC50 on the kinases, Ros1
T4 construct: purchased Reaction Biology Corp. (contract assay)
T4 sequence (P08922 28-2347): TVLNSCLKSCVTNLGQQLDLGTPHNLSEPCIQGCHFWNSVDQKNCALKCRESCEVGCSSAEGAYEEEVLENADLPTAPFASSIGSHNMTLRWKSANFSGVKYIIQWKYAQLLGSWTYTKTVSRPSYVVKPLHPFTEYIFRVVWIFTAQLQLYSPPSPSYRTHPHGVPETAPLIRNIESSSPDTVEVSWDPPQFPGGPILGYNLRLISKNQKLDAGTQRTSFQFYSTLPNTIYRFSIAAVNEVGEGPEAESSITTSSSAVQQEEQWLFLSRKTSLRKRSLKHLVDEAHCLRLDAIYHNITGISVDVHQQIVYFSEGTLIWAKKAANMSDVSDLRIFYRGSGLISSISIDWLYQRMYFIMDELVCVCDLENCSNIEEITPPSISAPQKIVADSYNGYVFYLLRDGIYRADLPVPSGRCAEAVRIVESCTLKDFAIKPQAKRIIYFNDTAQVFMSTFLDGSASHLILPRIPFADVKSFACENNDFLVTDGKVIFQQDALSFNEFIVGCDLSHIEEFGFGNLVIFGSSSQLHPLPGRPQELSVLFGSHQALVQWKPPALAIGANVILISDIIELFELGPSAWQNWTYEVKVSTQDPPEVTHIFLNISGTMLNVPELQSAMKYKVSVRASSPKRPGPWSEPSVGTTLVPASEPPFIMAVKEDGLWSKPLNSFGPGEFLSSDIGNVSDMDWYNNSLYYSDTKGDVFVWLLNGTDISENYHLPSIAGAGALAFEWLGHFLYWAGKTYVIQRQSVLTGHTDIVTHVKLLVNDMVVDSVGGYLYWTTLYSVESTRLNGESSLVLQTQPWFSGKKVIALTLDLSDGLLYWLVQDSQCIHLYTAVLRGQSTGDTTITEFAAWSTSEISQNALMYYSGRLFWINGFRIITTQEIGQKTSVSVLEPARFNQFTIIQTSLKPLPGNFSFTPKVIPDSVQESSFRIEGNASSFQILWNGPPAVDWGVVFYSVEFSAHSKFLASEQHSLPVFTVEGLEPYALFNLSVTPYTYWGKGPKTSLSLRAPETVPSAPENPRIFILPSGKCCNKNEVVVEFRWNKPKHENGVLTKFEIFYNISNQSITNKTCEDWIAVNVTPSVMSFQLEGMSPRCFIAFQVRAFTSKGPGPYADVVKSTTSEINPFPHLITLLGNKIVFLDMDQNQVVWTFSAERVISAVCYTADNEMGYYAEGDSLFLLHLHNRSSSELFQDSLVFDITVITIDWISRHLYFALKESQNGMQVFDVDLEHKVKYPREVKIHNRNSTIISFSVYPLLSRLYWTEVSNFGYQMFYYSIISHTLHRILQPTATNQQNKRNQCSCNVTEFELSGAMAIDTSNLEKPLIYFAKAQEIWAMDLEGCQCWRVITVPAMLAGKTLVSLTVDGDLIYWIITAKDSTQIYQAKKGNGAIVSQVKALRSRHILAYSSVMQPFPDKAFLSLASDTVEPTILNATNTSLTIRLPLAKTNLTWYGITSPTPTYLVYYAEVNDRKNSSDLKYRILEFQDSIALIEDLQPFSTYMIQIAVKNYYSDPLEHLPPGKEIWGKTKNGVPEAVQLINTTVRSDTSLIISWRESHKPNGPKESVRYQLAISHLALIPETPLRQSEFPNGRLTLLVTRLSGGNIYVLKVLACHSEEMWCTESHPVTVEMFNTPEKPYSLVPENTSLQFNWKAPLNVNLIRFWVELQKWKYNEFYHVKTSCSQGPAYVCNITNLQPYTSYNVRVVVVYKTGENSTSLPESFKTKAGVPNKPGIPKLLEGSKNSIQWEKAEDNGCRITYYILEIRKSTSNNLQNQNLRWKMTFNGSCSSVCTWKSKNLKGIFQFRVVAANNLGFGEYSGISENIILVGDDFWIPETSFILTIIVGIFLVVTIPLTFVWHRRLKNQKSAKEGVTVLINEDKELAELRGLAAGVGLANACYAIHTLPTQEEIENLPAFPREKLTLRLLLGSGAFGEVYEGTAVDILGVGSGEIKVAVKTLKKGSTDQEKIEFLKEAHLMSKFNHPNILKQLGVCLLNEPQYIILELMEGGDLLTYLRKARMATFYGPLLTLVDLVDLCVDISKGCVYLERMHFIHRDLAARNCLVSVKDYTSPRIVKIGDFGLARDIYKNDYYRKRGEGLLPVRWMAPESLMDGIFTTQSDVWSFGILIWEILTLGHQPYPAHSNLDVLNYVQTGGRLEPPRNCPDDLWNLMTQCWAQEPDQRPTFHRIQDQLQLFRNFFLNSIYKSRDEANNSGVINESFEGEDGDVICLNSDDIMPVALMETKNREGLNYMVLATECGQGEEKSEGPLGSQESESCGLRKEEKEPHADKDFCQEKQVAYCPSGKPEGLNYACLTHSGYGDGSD
Protocol: as §1

[8] = biological target: T5, TrkA-G595R (Homo sapiens, UniProt P04629, G595R); experiment: as above; format: biochemical; conditions: read-out: The half maximal inhibitory concentration IC50 on the kinases, TrkA-G595R
T5 construct: purchased Reaction Biology Corp. (contract assay)
T5 sequence (P04629 33-796 G595R): as the sequence (P04629 33-796) above, with G563R counted along it
Protocol: as §1

[9] = biological target: T6, Ba/F3 LMNA-NTRK1-WT stably transfected cell line (Homo sapiens, UniProt P04629); experiment: Cell proliferation inhibition (CellTiter-Glo); format: cell-based; conditions: 72 hours, read-out: The half maximal inhibitory concentration IC50 against cells, Ba/F3 LMNA-NTRK1-WT
T6 construct: fused on or other part: P02545 (Prelamin-A/C)
T6 sequence (P04629 whole entry, stated change not applied, the tested form may be a part): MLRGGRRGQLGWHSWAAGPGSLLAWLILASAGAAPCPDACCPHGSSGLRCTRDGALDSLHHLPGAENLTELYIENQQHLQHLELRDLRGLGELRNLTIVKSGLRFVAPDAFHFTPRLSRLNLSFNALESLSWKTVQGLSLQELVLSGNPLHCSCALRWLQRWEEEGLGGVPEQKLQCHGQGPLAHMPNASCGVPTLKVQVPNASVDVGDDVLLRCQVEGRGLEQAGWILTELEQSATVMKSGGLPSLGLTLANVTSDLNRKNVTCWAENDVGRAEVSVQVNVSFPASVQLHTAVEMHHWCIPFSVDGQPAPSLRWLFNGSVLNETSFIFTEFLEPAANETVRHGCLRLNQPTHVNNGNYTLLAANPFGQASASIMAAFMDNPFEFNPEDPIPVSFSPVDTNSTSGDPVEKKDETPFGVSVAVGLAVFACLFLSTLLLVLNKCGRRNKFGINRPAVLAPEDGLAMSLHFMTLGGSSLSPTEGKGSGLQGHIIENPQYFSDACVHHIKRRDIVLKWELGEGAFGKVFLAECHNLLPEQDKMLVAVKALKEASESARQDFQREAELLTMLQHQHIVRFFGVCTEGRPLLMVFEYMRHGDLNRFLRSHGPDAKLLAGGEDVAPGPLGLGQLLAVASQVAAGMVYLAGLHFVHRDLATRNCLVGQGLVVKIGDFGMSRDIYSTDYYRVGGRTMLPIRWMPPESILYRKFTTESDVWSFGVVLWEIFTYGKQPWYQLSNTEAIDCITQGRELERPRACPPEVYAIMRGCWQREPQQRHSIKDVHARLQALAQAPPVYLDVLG
Protocol: Adenosine Tri-Phosphate (ATP) is an energy carrier shared by various life activities in nature, and is the smallest unit of energy storage and transfer. The CellTiter-Glo™ cell viability detection kit uses luciferase as the detection substance, and luciferase requires the participation of ATP during the process of luminescence. CellTiter-Glo™ reagent is added to cell culture medium, and the luminescent intensity is measured. The luminescent signal is directly proportional to the amount of ATP in the system, and ATP is positively related to the number of living cells. Therefore, by using the CellTiter-Glo kit to detect ATP content, cell proliferation can be detected. In this assay, the cell line is Ba/F3 LMNA-NTRK1-WT stably transfected cell line, with 5000 cells/well.
IC50 Determination Process:
1. Cell Culture and Inoculation
a) the cells in the logarithmic growth phase were harvested, and counted with a platelet counter. Trypan blue exclusion method was used to detect cell viability to ensure the cell viability was no less than 90%.
b) the cell concentration was adjusted; 90 μL of cell suspension was added respectively into a 96-well plate.
c) the cells in the 96-well plates was cultured under conditions of 37° C., 5% CO2 and 95% humidity overnight.
2. Drug Dilution and Administration
a) 10-fold drug solutions were prepared, the highest concentration was 10 μM, 9 concentrations, 3-fold diluted (refer to Appendix I). 10 μL of each drug solution was added to each well of the 96-well plate seeded with the cells in triplicate.
b) the cells in the 96-well plate added with the drug were cultured under conditions of 37° C., 5% CO2 and 95% humidity for 72 hours, and then CTG (cell proliferation) was performed.
a) CellTiter-Glo™ reagent was thawed, and the cell plate was equilibrated at room temperature for 30 minutes.
b) CellTiter-Glo™ reagent of a same volume was added to each well;
c) the cell plate was shaken on an orbital shaker for 5 minutes to lyse the cells.
d) the cell plate was placed at room temperature for 20 minutes to stabilize the luminescent signal.
e) the luminescent intensity was read.
GraphPad Prism 5.0 software was used to analyze the data, nonlinear S-curve regression was used to fit the data to obtain dose-effect curve, and IC50 value was calculated therefrom.

IC50 [4]	SMILES	further results
	C[C@@H](Oc1cc(-c2cnn(C3CCNCC3)c2)cnc1N)c1c(Cl)ccc(F)c1Cl [Crizotinib, crizotinib, reference compound]	T/C ([1]; 30 mg/kg QD): 10.32%; TGI ([1]; 30 mg/kg QD): 117.67%; T/C ([1]; 50 mg/kg QD): 4.89%; TGI ([1]; 50 mg/kg QD): 124.09%
	C[C@@H]1CCc2ncc(F)cc2[C@H]2CCCN2c2ccn3ncc(c3n2)C(=O)N1 [LOXO-195, reference compound]	Area under the curve AUC0-last [2]: 27.344 µM·h; Time of peak concentration Tmax [2]: 22.8 min; Cmax ([2]; read-out: Peak concentration Cmax): 12.7 µM
	CN1CCN(c2ccc(C(=O)Nc3n[nH]c4ccc(Cc5cc(F)cc(F)c5)cc34)c(NC3CCOCC3)c2)CC1 [RXDX-101, Entrectinib, reference compound]	drug concentration in brain at 2 h Brain@2 h [3]: 30 nmol/kg
177 nM	CC1CCc2ncc(F)cc2C2CCON2c2ccn3ncc(c3n2)C(=O)N1 (stereo not drawn) [WX001 hydrochloride]	
> 1000 nM	O=C1NC2(CC2)COc2ncc(F)cc2[C@@H]2CCON2c2ccn3ncc1c3n2 [WX002B]	
4.37 nM	O=C1NC2(CC2)COc2ncc(F)cc2C2CCON2c2ccn3ncc1c3n2 (stereo not drawn) [WX002]	
> 1000 nM	O=C1NC2(CC2)COc2ccc(F)cc2[C@@H]2CCON2c2ccn3ncc1c3n2 [WX003B]	
> 1000 nM	C[C@@H]1COc2ncc(F)cc2[C@@H]2CCON2c2ccn3ncc(c3n2)C(=O)N1 [WX004B]	IC50 [5]: 105 nM
> 1000 nM	C[C@H]1CNC(=O)c2cnn3ccc(nc23)N2OCC[C@H]2c2cc(F)cnc2O1 [WX005A]	IC50 [6]: > 1000 nM; IC50 [7]: 531 nM; IC50 [5]: 189 nM
> 1000 nM	O=C1NC2(COC2)COc2ncc(F)cc2[C@@H]2CCON2c2ccn3ncc1c3n2 [WX006B]	IC50 [8]: > 1000 nM
585 nM	O=C1N[C@@H]2CCC[C@@H]2Oc2ncc(F)cc2[C@@H]2CCON2c2ccn3ncc1c3n2 [WX007B]	IC50 [8]: > 1000 nM
> 1000 nM	O=C1N[C@@H]2COC[C@@H]2Oc2ncc(F)cc2[C@@H]2CCON2c2ccn3ncc1c3n2 [WX008B]	IC50 [8]: > 1000 nM
85.1 nM	CN1C[C@@H]2Oc3ncc(F)cc3[C@H]3CCON3c3ccn4ncc(c4n3)C(=O)N[C@@H]2C1 [WX009A]	GI50 [9]: 76.8 nM
> 1000 nM	CN1C[C@@H]2Oc3ncc(F)cc3[C@@H]3CCON3c3ccn4ncc(c4n3)C(=O)N[C@@H]2C1 [WX009B]	
> 1000 nM	O=C1N[C@@H]2COCC[C@@H]2Oc2ncc(F)cc2[C@@H]2CCON2c2ccn3ncc1c3n2 [WX010A]	
33.6 nM	CN1CC[C@H]2NC(=O)c3cnn4ccc(nc34)N3OCC[C@@H]3c3cc(F)cnc3O[C@H]2C1 [WX011A]	GI50 [9]: 39.7 nM
270 nM	CN1CC[C@H]2NC(=O)c3cnn4ccc(nc34)N3OCC[C@H]3c3cc(F)cnc3O[C@H]2C1 [WX011B]	
> 1000 nM	O=C1N[C@@H]2CNC[C@@H]2Oc2ncc(F)cc2[C@@H]2CCON2c2ccn3ncc1c3n2 [WX012A]	
143 nM	O=C1N[C@@H]2CNC[C@@H]2Oc2ncc(F)cc2[C@H]2CCON2c2ccn3ncc1c3n2 [WX012B]	GI50 [9]: 259 nM
> 1000 nM	O=C1N[C@@H]2CCNC[C@@H]2Oc2ncc(F)cc2[C@@H]2CCON2c2ccn3ncc1c3n2 [WX013A]	
57.2 nM	O=C1N[C@@H]2CCNC[C@@H]2Oc2ncc(F)cc2[C@H]2CCON2c2ccn3ncc1c3n2 [WX013B]	GI50 [9]: 216 nM
1230 nM	CC(=O)N1CC[C@H]2NC(=O)c3cnn4ccc(nc34)N3OCC[C@H]3c3cc(F)cnc3O[C@H]2C1 [WX014A]	
12.8 nM	CC(=O)N1CC[C@H]2NC(=O)c3cnn4ccc(nc34)N3OCC[C@@H]3c3cc(F)cnc3O[C@H]2C1 [WX014B]	GI50 [9]: 80.4 nM
182 nM	CCN1C[C@@H]2Oc3ncc(F)cc3[C@H]3CCON3c3ccn4ncc(c4n3)C(=O)N[C@@H]2C1 [WX015A]	GI50 [9]: 65.1 nM
> 1000 nM	CCN1C[C@@H]2Oc3ncc(F)cc3[C@@H]3CCON3c3ccn4ncc(c4n3)C(=O)N[C@@H]2C1 [WX015B]	
33 nM	CCN1CC[C@H]2NC(=O)c3cnn4ccc(nc34)N3OCC[C@@H]3c3cc(F)cnc3O[C@H]2C1 [WX016A]	GI50 [9]: 65.8 nM
220 nM	CCN1CC[C@H]2NC(=O)c3cnn4ccc(nc34)N3OCC[C@H]3c3cc(F)cnc3O[C@H]2C1 [WX016B]	
> 1000 nM	C[C@@H]1COc2ccc(F)cc2[C@@H]2CCON2c2ccn3ncc(c3n2)C(=O)N1 [WX017B]	
> 1000 nM	CC1(C)COc2ncc(F)cc2[C@H]2CCON2c2ccn3ncc(c3n2)C(=O)N1 [WX018]	
